pKi: −log10 of the molar value. Where two headings read alike, the source gives them in different places.
Assays:
5-HT2C [1] = target: T1, 5-HT2C (Homo sapiens, UniProt P28335); settings: literature sources; read-out: affinity (Ki) 5-HT2C; cited from earlier work
T1 sequence (P28335 33-458): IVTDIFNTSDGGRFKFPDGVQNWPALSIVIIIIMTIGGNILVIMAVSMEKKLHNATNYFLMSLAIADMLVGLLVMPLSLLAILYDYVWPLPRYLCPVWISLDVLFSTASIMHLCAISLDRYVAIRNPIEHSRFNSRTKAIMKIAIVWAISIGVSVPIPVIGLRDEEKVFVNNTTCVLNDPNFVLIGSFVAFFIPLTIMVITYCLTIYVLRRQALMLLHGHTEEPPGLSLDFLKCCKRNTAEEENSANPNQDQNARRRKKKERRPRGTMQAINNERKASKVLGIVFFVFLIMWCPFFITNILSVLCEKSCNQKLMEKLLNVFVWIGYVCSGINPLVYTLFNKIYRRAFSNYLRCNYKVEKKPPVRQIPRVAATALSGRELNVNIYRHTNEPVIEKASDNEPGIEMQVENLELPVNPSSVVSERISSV

5-HT3 = target: T2, 5-HT3 (Homo sapiens, UniProt P46098); settings: other noteworthy target; literature sources; read-out: affinity (Ki) 5-HT3; cited from earlier work
T2 sequence (P46098 24-478): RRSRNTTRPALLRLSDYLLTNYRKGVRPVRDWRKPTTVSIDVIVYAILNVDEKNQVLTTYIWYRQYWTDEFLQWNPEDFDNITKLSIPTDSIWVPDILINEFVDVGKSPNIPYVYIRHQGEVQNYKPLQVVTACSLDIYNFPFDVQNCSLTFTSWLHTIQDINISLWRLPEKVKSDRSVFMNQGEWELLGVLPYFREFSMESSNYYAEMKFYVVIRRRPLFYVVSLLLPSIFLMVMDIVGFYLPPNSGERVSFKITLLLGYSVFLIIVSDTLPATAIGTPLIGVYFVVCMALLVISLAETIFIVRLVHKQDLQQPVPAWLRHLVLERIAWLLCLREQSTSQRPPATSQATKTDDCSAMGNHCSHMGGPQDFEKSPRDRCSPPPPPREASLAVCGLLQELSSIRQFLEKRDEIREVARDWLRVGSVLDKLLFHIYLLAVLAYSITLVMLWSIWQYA

[2] = target: alpha2 adrenergic receptor; settings: read-out: affinity (Ki) α2; other noteworthy target; literature sources; cited from earlier work
serotonin transporter = serotonin transporter (Homo sapiens, UniProt P31645); assay: Receptor profile: affinity (Ki) at SERT; format: binding; settings: data on file
[3] = target: norepinephrine transporter (Homo sapiens, UniProt P23975); assay: Receptor profile: affinity (Ki) at NET; format: binding; settings: data on file
dopamine transporter = dopamine transporter (Homo sapiens, UniProt Q01959); assay: Receptor profile: affinity (Ki) at DAT; format: binding; settings: data on file
5-HT2C [4] = target: T1, 5-HT2C; assay: Receptor profile: affinity (Ki) at 5-HT2C; format: binding; settings: data on file
5-HT2A = 5-HT2A (Homo sapiens, UniProt P28223); assay: Receptor profile: affinity (Ki) at 5-HT2A; format: binding; settings: data on file
D4 = target: T3, D4 (Homo sapiens, UniProt P21917); settings: other noteworthy target; literature sources; read-out: affinity (Ki) D4; cited from earlier work
T3 sequence (P21917 1-419): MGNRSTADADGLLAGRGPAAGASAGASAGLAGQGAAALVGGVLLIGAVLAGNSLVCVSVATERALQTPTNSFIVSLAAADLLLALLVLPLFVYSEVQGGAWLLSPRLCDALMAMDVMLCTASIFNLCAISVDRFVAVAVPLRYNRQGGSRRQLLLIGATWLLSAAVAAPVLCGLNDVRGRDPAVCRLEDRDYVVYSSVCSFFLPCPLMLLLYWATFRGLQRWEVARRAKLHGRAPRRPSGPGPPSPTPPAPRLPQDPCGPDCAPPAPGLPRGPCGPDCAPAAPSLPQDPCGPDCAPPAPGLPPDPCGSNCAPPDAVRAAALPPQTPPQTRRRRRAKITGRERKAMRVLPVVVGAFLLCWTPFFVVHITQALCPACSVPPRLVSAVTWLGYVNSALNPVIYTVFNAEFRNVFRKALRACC

patients with MDD = settings: Baldwin et al (2013); printed as x to 1; cited from earlier work
[5] = target: alpha1 adrenergic receptor; assay: Receptor profile: affinity (Ki) at α1; format: binding; settings: other noteworthy target; data on file

serotonin transporter, sequence (P31645 whole entry): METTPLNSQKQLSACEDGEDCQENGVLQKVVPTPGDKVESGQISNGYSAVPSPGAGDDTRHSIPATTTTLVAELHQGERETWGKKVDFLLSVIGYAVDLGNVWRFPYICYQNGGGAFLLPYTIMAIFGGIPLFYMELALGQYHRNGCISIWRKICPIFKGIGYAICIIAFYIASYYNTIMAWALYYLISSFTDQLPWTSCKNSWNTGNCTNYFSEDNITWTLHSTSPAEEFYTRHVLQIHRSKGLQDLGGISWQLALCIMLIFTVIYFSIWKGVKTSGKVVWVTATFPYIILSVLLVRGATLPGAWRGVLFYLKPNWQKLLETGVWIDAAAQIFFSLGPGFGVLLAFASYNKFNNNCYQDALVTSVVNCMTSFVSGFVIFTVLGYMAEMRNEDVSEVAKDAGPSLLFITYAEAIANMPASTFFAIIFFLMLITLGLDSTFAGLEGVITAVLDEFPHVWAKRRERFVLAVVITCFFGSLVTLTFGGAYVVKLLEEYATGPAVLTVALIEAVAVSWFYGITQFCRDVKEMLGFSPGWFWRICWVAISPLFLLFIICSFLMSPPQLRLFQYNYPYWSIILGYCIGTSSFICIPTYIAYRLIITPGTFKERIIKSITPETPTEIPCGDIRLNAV
norepinephrine transporter, sequence (P23975 whole entry, species assumed): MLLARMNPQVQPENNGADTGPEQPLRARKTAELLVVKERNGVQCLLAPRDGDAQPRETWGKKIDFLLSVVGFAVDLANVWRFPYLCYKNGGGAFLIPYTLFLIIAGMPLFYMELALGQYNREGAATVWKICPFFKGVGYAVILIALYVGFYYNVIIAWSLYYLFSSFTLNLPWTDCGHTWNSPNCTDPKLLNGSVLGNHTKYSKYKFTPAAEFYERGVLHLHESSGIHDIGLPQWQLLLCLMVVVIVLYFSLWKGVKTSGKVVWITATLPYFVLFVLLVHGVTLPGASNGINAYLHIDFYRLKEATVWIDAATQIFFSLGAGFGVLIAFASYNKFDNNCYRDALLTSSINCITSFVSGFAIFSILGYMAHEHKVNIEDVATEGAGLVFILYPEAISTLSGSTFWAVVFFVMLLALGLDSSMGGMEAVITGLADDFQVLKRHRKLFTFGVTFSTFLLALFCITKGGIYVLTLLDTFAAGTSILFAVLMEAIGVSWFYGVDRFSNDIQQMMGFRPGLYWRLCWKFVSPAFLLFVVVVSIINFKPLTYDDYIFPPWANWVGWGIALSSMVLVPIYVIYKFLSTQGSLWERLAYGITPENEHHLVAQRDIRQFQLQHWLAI
dopamine transporter, sequence (Q01959 whole entry): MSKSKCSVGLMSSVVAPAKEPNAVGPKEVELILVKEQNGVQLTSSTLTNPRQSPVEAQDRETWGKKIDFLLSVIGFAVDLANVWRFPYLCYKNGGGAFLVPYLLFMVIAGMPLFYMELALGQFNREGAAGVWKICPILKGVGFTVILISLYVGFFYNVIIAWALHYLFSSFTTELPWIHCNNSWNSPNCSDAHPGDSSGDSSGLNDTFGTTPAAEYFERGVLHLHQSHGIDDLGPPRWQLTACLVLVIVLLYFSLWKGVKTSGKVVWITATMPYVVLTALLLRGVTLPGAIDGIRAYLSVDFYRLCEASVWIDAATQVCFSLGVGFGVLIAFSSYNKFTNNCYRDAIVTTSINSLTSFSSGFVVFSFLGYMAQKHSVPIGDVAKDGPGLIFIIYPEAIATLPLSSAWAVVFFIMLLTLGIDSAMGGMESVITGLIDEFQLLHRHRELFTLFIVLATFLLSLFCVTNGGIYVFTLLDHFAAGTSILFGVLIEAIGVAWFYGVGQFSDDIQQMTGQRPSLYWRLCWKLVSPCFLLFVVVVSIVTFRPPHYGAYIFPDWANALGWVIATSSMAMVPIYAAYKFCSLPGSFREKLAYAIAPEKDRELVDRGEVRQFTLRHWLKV
5-HT2A, sequence (P28223 whole entry, species assumed): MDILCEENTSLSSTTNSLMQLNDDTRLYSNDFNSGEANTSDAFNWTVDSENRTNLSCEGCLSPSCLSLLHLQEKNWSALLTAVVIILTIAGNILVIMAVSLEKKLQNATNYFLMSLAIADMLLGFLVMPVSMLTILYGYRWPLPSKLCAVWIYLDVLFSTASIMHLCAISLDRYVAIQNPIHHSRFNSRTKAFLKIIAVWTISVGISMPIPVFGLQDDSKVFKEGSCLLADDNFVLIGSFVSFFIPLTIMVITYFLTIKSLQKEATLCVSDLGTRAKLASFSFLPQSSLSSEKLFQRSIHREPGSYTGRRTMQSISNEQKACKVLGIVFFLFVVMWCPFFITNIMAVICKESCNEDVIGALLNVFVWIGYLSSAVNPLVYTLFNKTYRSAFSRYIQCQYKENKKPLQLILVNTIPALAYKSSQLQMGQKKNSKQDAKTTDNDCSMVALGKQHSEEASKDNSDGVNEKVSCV

pKi (serotonin transporter) | pKi [3] | pKi (dopamine transporter) | pKi (5-HT2C [4]) | SMILES | pKi (5-HT2C [1]) | pKi [2] | further results
< 6.00 | < 6.00 | < 6.00 | 8.52 | Cc1nc2sccn2c(=O)c1CCN1CCC(=C(c2ccc(F)cc2)c2ccc(F)cc2)CC1 [RIT, ritanserin] | – | – | –
< 6.00 | < 6.00 | < 6.00 | < 6.00 | N#Cc1c[nH]c2c(C(=O)N3CCN(CCc4ccc(F)cc4)CC3)cccc12 [PRUV, pruvanserin] | – | – | pKi (5-HT2A): 9.15

Continued, molecule first:

SMILES | pKi (serotonin transporter) | pKi [3] | pKi (dopamine transporter) | pKi (5-HT2C [4]) | pKi (5-HT2C [1]) | pKi [2] | further results
CN1CCN2c3ncccc3Cc3ccccc3C2C1 (centres unmarked) [MIRT, mirtazapine] | – | – | – | – | 7.40 | 7.70 to 7.82 | pKi (5-HT3): 8.00
NC(=O)C1(N2CCCCC2)CCN(CCCC(=O)c2ccc(F)cc2)CC1 [PIP, pipamperone] | – | – | – | – | 6.92 | 7.46 | pKi (D4): 8.30
COc1ccc(C(CN(C)C)C2(O)CCCCC2)cc1 (centres unmarked) [venlafaxine] | – | – | – | – | – | – | odds ratio (drug to placebo) for sexual dysfunction (patients with MDD): 24.42
O=C(c1ccc(F)cc1)C1CCN(CCn2c(=O)[nH]c3ccccc3c2=O)CC1 [KET, ketanserin] | – | – | – | – | – | – | pKi [5]: 7.70 to 7.82

— US20220016101A1 (ACADIA Pharmaceuticals Inc., priority 2018, published 2022)
